What was measured:
CT2A cells = experiment: Survival of mice intracranially implanted with CT2A cells; assay type: in vivo, C57BL/6 mice; conditions: CT2A 2×10^4 cells/mouse; BAPN 2 g/L drinking water from day 4; SR9009 100 mg/kg i.p. 10 days from day 7; anti-PD1 10 mg/kg i.p. days 11, 14, 17; radiation 2.5 Gy 4 days from day 7
Procedure: Mice and Intracranial Xenograft Tumor Models. Female C57BL/6 mice at 3 to 4 weeks of age were purchased from the Jackson Laboratory (#0000664). All animals were grouped by 5 mice per cage and maintained in IVC System (San Diego, CA) for a week before the experiment. All animal experiments were performed with the approval of the Institutional Animal Care and Use Committee (IACUC) at Northwestern University. The intracranial xenograft tumor models were established previously. In brief, mice were anesthetized by isoflurane through IMPAC6 Anesthesia System. Then a dental drill was used to open a small hole in the skull of mice 1.2 mm anterior and 3.0 mm lateral to the bregma. Mice were placed into the stereotactic apparatus, and 5 μL 005 GSC, CT2A, or GL261 cells in FBS-free culture medium were injected into the right caudate nucleus 3 mm below the surface of the brain using a 10 μL Hamilton syringe with an unbeveled 30-gauge needle. The incision was closed using Vetbond glue. Meloxicam (20 mg/kg, daily) was subcutaneously injected for pain relief for 3 days after surgery. […]
Statistical analysis. […] The survival analysis for animal models was determined by conducting Log-rank (Mantel-Cox) test. […]

PD-L1 = experiment: Immunoblots for PD-L1 in PTEN-deficient GBM cells; assay type: cell-based, human and mouse; conditions: immunoblot; U87, PTEN-KO SF763, CT2A, 005 GSC, GSC23, GSC7-10; 24 hours
Procedure: Cell Culture. The GBM cell lines U87, U251, SF763, LN229, and CT2A, as well as 293T cells were cultured in Dulbecco's Modified Eagle's Medium (DMEM; Gibco, #11995-065). The mouse glioma cell line GL261 cells and SIM-A9 microglia were cultured in Dulbecco's Modified Eagle Medium-Ham's F12 medium (Gibco, #10565-018). HMC3 microglia were cultured in Eagle's Minimum Essential Medium (ATCC, #30-2003). THP-1 macrophages were cultured in RPMI 1640 medium (Gibco, #11875093). All cell lines were cultured in the indicated medium containing 10% fetal bovine serum (FBS; Fisher Scientific, #16140071) and 1:100 antibiotic-antimycotic (Gibco, #15140-122), and were purchased from the American Type Culture Collection (ATCC). Human GSCs (GSC23 and GSC7-10) and mouse GBM tumor-derived 005 GSCs and QPP7 GSCs were cultured in neural stem cell (NSC) proliferation media (Millipore, #SCM005) containing 20 ng/mL epidermal growth factor (EGF; PeproTech, #AF-100-15) and basic fibroblast growth factor (bFGF; PeproTech, #100-18B). Human GSCs were gifted by Dr. Frederick F. Lang from the Brain Tumor Center (The University of Texas MD Anderson Cancer Center). 005 GSCs and QPP7 GSCs were provided by Dr. Samuel D. Rabkin (Massachusetts General Hospital) and Dr. Jian Hu (The University of Texas MD Anderson Cancer Center), respectively. PTEN CRISPR KO in SF763 and LN229 cells were generated. […]

With `N#CCCN` [BAPN, β-aminopropionitrile] the survival (CT2A cells) was “extended the survival” and the “expression of PD-L1” value (PD-L1) was “upregulated”.
